Earlier results in patent publication US20260000626A1, “POLYMERIC NANOPARTICLES FOR LONG ACTING DELIVERY OF A PEPTIDE AND METHODS OF MAKING AND USING THEREOF” (Brown University, priority 2022, published 2026).

Key:
[1] = target: T1, GLP-1 receptor (Homo sapiens, UniProt P43220); conditions: vs intact GLP-1
[2] = target: T1, GLP-1 receptor; conditions: negligible agonistic activity

T1 sequence (P43220 24-463, species assumed): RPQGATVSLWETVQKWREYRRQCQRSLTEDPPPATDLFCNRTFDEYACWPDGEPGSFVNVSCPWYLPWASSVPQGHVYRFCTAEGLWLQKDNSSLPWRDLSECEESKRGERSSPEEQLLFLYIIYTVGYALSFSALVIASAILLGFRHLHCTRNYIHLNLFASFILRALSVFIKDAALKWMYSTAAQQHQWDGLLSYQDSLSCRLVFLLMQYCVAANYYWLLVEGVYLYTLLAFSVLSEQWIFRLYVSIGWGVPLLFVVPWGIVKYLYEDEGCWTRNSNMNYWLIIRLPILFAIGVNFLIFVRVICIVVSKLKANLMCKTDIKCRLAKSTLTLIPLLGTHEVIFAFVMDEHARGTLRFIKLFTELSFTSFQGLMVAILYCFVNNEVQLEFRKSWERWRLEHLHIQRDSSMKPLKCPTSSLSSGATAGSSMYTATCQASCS

GLP-1(9-36)-NH2
lower binding affinity compared to the intact peptide [1]: 100 fold
decrease in agonistic activity [2]: > 10000 fold
